Test results from ChEMBL document CHEMBL1201862, “PubChem BioAssay data set” (2004).
Active and inactive are the calls of the source.

How the values were obtained:
[1] = target: NS3 (Hepatitis C virus, UniProt A3EZJ3); test: PubChem AID 2173; parameters: species or system Hepacivirus hominis
[2] = enhancers of respiration in Yfh1-depleted yeast, dose response, Friedreich's ataxia, plus single-dose screen (AID 1465); format: functional;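 note: yeast depleted of Yfh1p frataxin homolog grown on glycerol needing respiration; WST-1 tetrazolium dye reduction as measure of cellular dehydrogenase metabolic activity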
[3] = target: Neuropeptide Y receptor type 1 (Homo sapiens, UniProt P25929); test: NPY-Y1 receptor antagonist potency, dose response, cell-based (AID 1277); format: functional
Chain of Neuropeptide Y receptor type 1 (P25929 whole entry): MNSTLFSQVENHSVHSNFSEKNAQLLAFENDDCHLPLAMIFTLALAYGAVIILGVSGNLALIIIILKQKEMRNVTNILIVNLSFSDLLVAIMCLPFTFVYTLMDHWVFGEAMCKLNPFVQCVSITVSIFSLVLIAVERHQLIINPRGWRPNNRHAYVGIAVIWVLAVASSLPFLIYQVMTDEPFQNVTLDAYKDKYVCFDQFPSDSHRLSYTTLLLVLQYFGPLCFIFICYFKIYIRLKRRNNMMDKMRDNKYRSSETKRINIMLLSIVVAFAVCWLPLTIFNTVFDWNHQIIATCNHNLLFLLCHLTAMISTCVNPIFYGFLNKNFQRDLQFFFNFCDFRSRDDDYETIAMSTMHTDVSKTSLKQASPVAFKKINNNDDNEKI

[4] = target: Neuropeptide Y receptor type 2 (Homo sapiens, UniProt P49146); test: NPY-Y2 antagonist potency, selectivity check, dose response, counter-screen for NPY-Y1 antagonist project, cell-based (AID 1278); format: functional
Chain of Neuropeptide Y receptor type 2 (P49146 whole entry): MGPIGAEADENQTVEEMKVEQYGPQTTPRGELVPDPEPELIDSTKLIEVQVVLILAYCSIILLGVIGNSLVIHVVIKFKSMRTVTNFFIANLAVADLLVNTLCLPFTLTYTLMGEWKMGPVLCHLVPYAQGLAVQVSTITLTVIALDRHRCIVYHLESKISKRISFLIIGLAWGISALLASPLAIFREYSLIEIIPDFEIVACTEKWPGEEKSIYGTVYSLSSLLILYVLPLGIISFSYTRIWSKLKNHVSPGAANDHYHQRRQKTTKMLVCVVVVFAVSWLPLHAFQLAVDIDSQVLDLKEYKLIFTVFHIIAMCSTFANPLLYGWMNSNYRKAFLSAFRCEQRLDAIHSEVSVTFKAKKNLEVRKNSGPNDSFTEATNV

[5] = target: Paired box protein Pax-8 (Homo sapiens, UniProt Q06710); test: inhibitors of PAX8-driven TPO luciferase reporter, dose response, RMG-I cells, cherry-pick (AID 687027); format: functional, cell-based;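 note: luciferase reporter driven by Pax8 target thyroperoxidase promoter measured by SteadyGlo luminescence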
[6] = inhibitors of SNCA 5'UTR-driven reporter translation, confirmation, H4 neuroglioma cells, luminescence (AID 1988); format: functional, cell-based
[7] = inhibitors of SNCA 5'UTR-driven translation, confirmation, luminescence, H4 neuroglioblastoma cells, dose confirmation (AID 2454); format: functional, cell-based;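 note: H4 neuroglioblastoma cells carrying an alpha-synuclein 5'UTR luciferase reporter; potency for inhibition of the luciferase signal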
[8] = ZM109 Env clade C HIV-1 fusion inhibitors, dose response, HeLa effector, CEM target cells, luciferase, cherry-pick (AID 652058); format: functional, cell-based
[9] = inhibitors of HIV Env-driven cell fusion, dose response, cherry-pick (AID 652057); format: functional, cell-based
[10] = Luminescence Cell-Based Dose Response HTS to Identify Inhibitors of 5'UTR Stem-Loop Driven Prion Protein mRNA Translation in H4 Neuroglioblastoma Cells. [Related pubchem assays: 1827 (Project Summary), 1813 (Primary HTS)]; format: functional
[11] = inhibitors of clade B AD8 Env fusion, dose response, cell-based, cherry-pick (AID 652062); format: functional;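 note: luciferase signal from cell-cell fusion driven by HIV-1 clade B AD8 Env; potency is for inhibitors of fusion seen as a drop in luminescence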
[12] = inhibitors of firefly luciferase expression or activity, dose response, H4 neuroglioma cells, luminescence (AID 1990); format: functional, cell-based
[13] = luciferase reporter signal reduction – luminescence, H4-C neuroglioblastoma cells, dose response (AID 2458); format: functional, cell-based;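 note: H4 neuroglioblastoma cells stably carrying a luciferase reporter gene fusion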
[14] = cytotoxicity in HEK-293T NF-kB-Luc cells, dose response, cytotoxicity control for B/T-cell NF-kB inhibitor project, cell-based, uHTS hits (AID 489019); format: functional;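 note: IC50 reflects cytotoxicity as loss of cell viability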
[15] = tested on: Jurkat; test: antigen receptor-induced NF-kB inhibitors, dose response, Jurkat, luciferase reporter, luminescence, B- and T-cell (AID 489004); format: functional, cell-based; conditions: Homo sapiens;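 note: NF-kB luciferase reporter Jurkat cells stimulated with PMA plus ionomycin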
[16] = cells; format: functional, cell-based
[17] = Luminescence-based counterscreen assay for KLF5 inhibitors: dose response cell-based high throughput screening assay to identify cytotoxic compounds using the IEC-6 intestinal epithelial cell line. [Related pubchem assays: 1700 (Primary screen.), 1834 (Confirmation screen.), 1858 (Summary AID.), 1905 (Counterscreen.)]; format: functional
[18] = off-target signal loss in HeLa-CEM21 co-culture – HeLa F-luc CTL cells, cherry-picked, counter-screen for HIV-1 Env fusion inhibitor project, dose response (AID 652040); format: functional, cell-based;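 note: potency for signal decrease marking cytotoxic or nonspecific inhibition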
[19] = tested on: HEK293; test: inhibitors of LMP1-driven NF-kB reporter, dose response, cell-based, HEK293, luciferase, cherry-pick (AID 588343); format: functional; conditions: Homo sapiens
[20] = tested on: HT-1080; test: cytotoxicity in HT1080 fibrosarcoma cells, cell-based, fluorescence readout (AID 620); format: functional; conditions: Homo sapiens
[21] = target: Luciferin 4-monooxygenase (Photinus pyralis, UniProt P08659); test: Counter Screen for Luciferase-based Assay Positives. [Related pubchem assays: 620, 618, 411 ]
Chain of Luciferin 4-monooxygenase (P08659 whole entry): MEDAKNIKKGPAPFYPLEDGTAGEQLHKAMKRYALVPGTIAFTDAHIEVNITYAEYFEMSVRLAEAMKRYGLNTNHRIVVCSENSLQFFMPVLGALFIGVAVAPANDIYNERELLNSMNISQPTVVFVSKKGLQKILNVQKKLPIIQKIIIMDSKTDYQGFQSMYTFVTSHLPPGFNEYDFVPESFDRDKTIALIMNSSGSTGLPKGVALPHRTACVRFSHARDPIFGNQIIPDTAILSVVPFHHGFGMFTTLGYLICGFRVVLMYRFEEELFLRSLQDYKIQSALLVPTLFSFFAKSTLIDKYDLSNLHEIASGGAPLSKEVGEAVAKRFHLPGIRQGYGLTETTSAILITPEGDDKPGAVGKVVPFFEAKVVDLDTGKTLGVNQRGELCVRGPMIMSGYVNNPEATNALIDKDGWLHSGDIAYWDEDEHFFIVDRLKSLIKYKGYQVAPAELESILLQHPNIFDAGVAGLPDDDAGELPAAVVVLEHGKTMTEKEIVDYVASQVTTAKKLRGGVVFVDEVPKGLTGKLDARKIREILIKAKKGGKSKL

[22] = target: Lytic switch protein BZLF1 (Epstein-Barr virus (strain B95-8) (HHV-4) (Human herpesvirus 4), UniProt P03206); test: EBV ZTA inhibitors, dose response, counter-screen for EBNA-1 inhibitor project, biochemical, fluorescence polarization, Epstein-Barr virus, 1536-well (AID 2377); parameters: species or system human gammaherpesvirus 4;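 note: fluorescence polarization of Cy5-labelled ZRE DNA probe bound by purified Zta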
Chain of Lytic switch protein BZLF1 (P03206 whole entry): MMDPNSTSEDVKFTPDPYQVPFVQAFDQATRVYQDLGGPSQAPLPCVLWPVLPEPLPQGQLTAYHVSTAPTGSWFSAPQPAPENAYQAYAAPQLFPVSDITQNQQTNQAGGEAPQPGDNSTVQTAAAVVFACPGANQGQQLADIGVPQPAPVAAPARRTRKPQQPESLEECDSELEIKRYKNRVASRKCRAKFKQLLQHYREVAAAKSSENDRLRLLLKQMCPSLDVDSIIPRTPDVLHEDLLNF

[23] = target: Epstein-Barr nuclear antigen 1 (Epstein-Barr virus (strain B95-8) (HHV-4) (Human herpesvirus 4), UniProt P03211); test: EBNA-1 inhibitors, dose response, biochemical, fluorescence polarization, 1536-well (AID 2381); parameters: species or system human gammaherpesvirus 4;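 note: fluorescence polarization of a Cy5 DNA probe bound by EBNA-1 protein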
Chain of Epstein-Barr nuclear antigen 1 (P03211 whole entry): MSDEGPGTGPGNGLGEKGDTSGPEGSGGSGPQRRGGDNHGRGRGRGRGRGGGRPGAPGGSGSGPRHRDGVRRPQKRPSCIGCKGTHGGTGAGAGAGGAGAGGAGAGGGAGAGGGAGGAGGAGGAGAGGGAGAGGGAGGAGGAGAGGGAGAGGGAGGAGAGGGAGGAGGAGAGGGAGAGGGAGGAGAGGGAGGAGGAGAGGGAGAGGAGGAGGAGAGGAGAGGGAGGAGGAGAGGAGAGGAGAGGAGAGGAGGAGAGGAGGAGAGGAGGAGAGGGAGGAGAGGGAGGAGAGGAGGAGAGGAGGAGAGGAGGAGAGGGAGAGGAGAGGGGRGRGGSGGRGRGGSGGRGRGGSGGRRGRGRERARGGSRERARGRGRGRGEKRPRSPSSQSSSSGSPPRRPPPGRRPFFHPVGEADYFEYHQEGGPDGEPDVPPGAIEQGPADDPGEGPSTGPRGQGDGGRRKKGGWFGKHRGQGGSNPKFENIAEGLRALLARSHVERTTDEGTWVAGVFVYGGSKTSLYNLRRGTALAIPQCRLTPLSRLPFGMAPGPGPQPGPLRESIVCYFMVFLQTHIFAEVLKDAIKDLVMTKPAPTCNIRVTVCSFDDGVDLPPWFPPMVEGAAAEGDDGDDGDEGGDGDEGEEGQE

[24] = target: T1, High affinity choline transporter 1 (Homo sapiens, UniProt Q9GZV3); test: CHT inhibitors, dose response, cell-based, 5-point CRC, membrane potential dye (AID 504840); format: functional
T1 sequence (Q9GZV3 whole entry): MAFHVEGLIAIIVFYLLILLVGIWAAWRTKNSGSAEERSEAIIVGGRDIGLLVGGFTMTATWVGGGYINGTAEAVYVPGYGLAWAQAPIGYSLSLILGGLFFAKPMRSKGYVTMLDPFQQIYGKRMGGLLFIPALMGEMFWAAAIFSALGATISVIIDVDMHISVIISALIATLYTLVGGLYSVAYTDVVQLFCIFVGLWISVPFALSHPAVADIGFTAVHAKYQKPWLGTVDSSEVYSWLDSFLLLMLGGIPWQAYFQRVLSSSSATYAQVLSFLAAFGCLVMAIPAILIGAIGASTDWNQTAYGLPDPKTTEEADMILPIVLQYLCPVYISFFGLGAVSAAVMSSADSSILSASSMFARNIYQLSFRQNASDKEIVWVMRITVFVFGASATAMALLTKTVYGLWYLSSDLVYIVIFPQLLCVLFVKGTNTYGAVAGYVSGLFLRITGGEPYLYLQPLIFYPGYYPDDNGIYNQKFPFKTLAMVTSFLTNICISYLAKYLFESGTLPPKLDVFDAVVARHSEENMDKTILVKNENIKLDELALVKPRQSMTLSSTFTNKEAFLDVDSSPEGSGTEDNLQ

[25] = tested on: Vero; test: Vero cell cytotoxicity, cytotoxicity control for flavivirus capping enzyme inhibitors (AID 588742); format: functional; conditions: Chlorocebus sabaeus
[26] = target: T2, Ubiquitin-conjugating enzyme E2 N (Homo sapiens, UniProt P61088); format: functional
T2 sequence (P61088 whole entry): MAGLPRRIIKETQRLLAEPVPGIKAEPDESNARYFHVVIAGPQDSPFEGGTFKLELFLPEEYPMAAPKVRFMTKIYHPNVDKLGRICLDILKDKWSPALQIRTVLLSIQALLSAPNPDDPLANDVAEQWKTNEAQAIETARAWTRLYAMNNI

[27] = target: Potassium voltage-gated channel subfamily KQT member 2 (Rattus norvegicus, UniProt O88943, W236L); test: KCNQ2 channel potentiators, dose response, mechanism study for KCNQ2 potentiator project, cell-based, automated electrophysiology (AID 2603); format: functional
Chain of Potassium voltage-gated channel subfamily KQT member 2 (O88943 whole entry W236L): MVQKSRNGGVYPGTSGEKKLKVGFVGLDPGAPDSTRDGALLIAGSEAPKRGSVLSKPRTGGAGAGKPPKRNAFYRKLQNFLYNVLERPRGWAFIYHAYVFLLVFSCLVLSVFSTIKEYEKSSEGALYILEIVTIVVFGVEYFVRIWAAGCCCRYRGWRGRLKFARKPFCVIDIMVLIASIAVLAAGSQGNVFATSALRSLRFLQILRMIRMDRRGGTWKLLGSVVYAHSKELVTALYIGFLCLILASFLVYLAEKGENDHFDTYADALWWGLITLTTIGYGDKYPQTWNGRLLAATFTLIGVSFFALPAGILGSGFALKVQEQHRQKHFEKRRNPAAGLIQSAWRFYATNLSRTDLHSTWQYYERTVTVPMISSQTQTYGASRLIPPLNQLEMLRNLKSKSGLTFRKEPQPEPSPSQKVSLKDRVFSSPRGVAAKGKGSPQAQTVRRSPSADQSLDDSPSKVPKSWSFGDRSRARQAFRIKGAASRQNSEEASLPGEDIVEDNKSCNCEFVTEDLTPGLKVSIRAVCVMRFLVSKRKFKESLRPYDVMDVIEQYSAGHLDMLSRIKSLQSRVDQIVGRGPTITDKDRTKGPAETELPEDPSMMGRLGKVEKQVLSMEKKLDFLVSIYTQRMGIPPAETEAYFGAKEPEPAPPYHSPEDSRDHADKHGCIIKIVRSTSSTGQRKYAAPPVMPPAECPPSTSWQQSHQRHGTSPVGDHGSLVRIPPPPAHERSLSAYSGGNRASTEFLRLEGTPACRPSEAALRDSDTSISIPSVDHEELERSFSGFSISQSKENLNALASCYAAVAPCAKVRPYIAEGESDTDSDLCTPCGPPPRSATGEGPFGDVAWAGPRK

[28] = target: T3, Bcl-2-related protein A1 (Mus musculus, UniProt Q07440); format: functional;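 note: confirmatory dose–response counterscreen on Bfl-1, used to check hits from a UBC13 polyubiquitin inhibitor campaign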
T3 sequence (Q07440 whole entry): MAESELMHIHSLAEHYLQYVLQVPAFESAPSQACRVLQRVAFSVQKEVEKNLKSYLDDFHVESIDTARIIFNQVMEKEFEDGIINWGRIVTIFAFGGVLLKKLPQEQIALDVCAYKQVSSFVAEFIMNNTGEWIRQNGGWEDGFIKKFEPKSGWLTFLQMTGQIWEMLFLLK

[29] = Shn3 3'UTR reporter inhibitors, dose response, cell-based, Clone20 osteoblasts, firefly luciferase, cherry-picked (AID 624132); format: functional;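 note: firefly luciferase luminescence from reporter carrying the Shn3 3'UTR in osteoblasts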
[30] = target: T4, Protein RecA (Mycobacterium tuberculosis, UniProt P9WHJ3); test: Fluorescence Cell-Free Homogeneous Dose Retest to Identify Inhibitors of RecA-Intein Splicing Activity. [Related pubchem assays (depositor defined):AID2097, AID2223, AID489010, AID492950]; format: functional
T4 sequence (P9WHJ3 whole entry): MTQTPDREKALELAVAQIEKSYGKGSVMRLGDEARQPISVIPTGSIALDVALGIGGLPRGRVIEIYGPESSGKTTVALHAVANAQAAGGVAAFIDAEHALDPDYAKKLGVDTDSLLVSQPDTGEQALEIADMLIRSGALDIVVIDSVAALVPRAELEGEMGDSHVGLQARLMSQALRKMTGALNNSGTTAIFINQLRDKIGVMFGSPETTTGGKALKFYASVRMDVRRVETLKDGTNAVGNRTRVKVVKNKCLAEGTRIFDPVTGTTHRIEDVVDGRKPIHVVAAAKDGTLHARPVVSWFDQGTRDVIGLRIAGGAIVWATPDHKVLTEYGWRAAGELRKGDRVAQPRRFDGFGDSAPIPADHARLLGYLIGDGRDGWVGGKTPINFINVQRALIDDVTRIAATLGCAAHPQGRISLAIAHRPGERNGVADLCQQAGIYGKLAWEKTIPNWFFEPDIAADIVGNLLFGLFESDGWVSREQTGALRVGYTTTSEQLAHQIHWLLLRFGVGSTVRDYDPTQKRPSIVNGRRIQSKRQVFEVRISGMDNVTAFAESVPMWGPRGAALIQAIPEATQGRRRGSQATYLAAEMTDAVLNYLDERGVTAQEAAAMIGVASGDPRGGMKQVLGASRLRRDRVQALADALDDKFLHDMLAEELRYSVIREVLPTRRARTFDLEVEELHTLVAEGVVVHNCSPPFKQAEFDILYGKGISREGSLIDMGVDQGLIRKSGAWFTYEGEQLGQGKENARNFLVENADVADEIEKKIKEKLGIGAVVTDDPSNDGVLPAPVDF

[31] = inhibitors of control Renilla luciferase reporter, dose response, counter-screen for Shn3 3'UTR targeting project, Clone20-Shn3RL cells, dual-Glo, cherry-pick, set 2 (AID 720724); format: functional, cell-based; conditions: Dual-Go Shn3RL
[32] = target: Genome polyprotein (dengue virus type 2, UniProt P29990); test: Dengue-2 NS5 methyltransferase inhibitors, primary screen, biochemical, confirmation dose response (AID 588689); format: functional
Chain of Genome polyprotein (P29990 2492-3391 limits assumed): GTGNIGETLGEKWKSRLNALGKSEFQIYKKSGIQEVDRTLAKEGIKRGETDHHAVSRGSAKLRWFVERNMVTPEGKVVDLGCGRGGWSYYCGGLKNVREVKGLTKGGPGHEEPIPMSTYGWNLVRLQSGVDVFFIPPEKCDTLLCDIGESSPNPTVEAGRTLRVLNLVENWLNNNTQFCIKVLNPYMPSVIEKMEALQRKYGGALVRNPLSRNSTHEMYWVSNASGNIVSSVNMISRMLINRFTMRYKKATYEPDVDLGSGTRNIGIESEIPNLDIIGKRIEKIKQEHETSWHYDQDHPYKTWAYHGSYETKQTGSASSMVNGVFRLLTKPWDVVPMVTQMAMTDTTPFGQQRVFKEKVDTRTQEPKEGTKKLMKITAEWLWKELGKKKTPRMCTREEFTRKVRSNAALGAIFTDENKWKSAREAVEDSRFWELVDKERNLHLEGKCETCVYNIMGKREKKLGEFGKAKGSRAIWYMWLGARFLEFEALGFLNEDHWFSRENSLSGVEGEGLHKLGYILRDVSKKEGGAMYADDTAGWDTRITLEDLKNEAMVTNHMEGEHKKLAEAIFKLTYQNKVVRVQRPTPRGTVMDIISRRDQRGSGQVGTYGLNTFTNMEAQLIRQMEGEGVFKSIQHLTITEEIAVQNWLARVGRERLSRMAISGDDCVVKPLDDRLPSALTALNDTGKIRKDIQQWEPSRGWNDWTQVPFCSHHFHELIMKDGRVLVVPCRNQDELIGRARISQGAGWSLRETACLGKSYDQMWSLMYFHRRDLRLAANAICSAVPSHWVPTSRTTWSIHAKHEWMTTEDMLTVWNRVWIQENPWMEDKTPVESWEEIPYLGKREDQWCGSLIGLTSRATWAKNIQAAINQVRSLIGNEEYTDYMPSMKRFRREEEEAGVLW

[33] = control 3'UTR Renilla luciferase suppression, dose response, counter-screen for Shn3 inhibitor project, cell-based, Clone20-Shn3RL, cherry-picked (AID 624133); format: functional
[34] = target: T5, Replicative DNA helicase DnaB (Mycobacterium tuberculosis, UniProt P9WMR3); test: DnaB intein splicing inhibitors, dose response, biochemical, cell-free fluorescence (AID 449749); format: functional
T5 sequence (P9WMR3 whole entry): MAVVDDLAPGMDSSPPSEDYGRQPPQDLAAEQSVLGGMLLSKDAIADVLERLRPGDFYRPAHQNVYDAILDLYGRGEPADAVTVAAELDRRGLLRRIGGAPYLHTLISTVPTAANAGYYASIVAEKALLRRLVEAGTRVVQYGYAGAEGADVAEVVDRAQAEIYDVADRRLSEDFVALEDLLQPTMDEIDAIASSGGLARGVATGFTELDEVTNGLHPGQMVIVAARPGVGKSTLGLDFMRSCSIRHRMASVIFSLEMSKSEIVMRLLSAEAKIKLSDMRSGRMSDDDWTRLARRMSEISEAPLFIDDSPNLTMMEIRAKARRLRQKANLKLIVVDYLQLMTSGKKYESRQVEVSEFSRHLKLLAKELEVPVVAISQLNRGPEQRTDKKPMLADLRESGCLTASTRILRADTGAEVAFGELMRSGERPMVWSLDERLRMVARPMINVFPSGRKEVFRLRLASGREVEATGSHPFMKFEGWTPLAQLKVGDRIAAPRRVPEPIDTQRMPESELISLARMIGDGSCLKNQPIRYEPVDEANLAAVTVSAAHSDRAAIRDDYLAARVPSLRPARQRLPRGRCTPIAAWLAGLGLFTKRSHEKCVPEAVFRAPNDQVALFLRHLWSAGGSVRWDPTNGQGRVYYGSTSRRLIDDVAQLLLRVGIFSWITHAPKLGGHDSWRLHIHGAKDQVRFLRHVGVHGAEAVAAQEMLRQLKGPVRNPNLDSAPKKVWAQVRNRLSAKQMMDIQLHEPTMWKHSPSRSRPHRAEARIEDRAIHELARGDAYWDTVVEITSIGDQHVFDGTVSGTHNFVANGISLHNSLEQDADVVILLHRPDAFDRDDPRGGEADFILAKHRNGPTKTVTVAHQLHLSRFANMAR

[35] = reduction of Shn3 3'UTR firefly luciferase signal, dose response, Schnurri-3 inhibitor project, cell-based, Clone20 osteoblasts, cherry-pick, set 2 (AID 720490); format: functional;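 note: actives lower the luminescence signal as inhibitors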
[36] = target: T2, Ubiquitin-conjugating enzyme E2 N; format: functional; remark: listed apart in the source
[37] = target: T1, High affinity choline transporter 1; test: CHT inhibitors, dose response, cell-based, 10-point CRC, membrane potential dye (AID 588401); format: functional;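 note: membrane potential dye fluorescence of choline-evoked depolarization via CHT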
[38] = reduction of endogenous Shn3 mRNA, dose response, qPCR, Clone20 cells, cherry-pick (AID 743415); format: functional, cell-based

Chain of NS3 (A3EZJ3 whole entry): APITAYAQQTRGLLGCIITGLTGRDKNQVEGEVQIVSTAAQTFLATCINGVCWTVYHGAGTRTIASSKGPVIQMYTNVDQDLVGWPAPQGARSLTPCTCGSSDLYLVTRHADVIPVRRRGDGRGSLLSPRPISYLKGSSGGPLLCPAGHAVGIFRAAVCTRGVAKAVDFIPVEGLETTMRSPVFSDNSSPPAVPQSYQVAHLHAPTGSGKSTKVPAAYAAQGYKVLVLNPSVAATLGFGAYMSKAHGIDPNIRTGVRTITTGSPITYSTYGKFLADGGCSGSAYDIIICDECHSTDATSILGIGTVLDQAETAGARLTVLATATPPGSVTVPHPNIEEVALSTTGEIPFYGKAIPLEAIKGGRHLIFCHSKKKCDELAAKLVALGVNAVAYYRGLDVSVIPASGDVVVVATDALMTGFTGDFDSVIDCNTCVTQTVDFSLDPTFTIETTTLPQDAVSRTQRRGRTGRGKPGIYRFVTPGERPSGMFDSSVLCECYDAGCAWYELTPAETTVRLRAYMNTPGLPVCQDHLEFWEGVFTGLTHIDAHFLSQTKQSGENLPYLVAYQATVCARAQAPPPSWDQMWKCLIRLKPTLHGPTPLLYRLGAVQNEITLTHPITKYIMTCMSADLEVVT

Cc1cc(Cl)ccc1Oc1ccccc1C(=O)CC#N
IC50 [1]: 3.54 µM (active)

CCOc1ccc2nc(NN=C3C(=O)NC(=O)NC3=O)sc2c1
EC50 [2]: > 100 µM (active)

COc1ccc(C2N(c3ccc(Cl)cc3)N=C(C(C)=O)N(C)N2C(C)=O)cc1 (stereo not drawn)
IC50 [3]: > 35 µM (not active)
IC50 [4]: > 35 µM (not active)

O=C(NCCc1ccccc1F)c1ccc2c(c1)OCCO2
AC50 [5]: 2.18 µM (active)
EC50 [6]: 0.113 µM (active)
EC50 [7]: 0.151 µM (active)
AC50 [8]: 8.11 µM (active)
AC50 [9]: 2.14 µM (active)
EC50 [10]: < 0.1 µM (active)
AC50 [11]: 1.25 µM (active)
EC50 [12]: 0.16 µM (active)
EC50 [13]: 0.258 µM (active)
IC50 [14]: > 80 µM (inactive)
IC50 [15]: 0.77 µM (active)
EC50 [16]: 0.316 µM (active)
IC50 [17]: > 39.8 µM (not active)
AC50 [18]: 3.21 µM (active)

Cc1ccc(C(=O)Nc2cccc(C(=O)O)c2)cc1S(=O)(=O)N1CCCCC1
AC50 [19]: 3.76 µM (active)
EC50 [20]: > 50 µM (not active)
EC50 [21]: < 0.2 µM (active)

COc1ccc(-c2nonc2NC(=O)c2oc3ccc(F)cc3c2C)cc1OC
IC50 [22]: > 111 µM (not active)
IC50 [23]: 16.4 µM (not active)

CCCc1nnc(NC(=O)c2nc(S(=O)(=O)Cc3ccc(C)cc3)ncc2Cl)s1
IC50 [24]: 2.59 µM (active)
CC50 [25]: > 40 µM (active)
IC50 [26]: 14.8 µM (active)
EC50 [27]: 3.02 µM (active)
IC50 [28]: > 20 µM (inactive)
AC50 [29]: 0.538 µM (active)
EC50 [30]: 86.7 µM (active)
AC50 [31]: 40.7 µM (active)
IC50 [32]: > 100 µM (active)
AC50 [33]: 12.5 µM (active)
AC50 [34]: > 380 µM (inactive)
AC50 [35]: 2.05 µM (active)
IC50 [36]: 10.5 µM (active)
IC50 [37]: 3.36 µM (active)
AC50 [38]: 13.4 µM (active)
